Experimental data published in patent US6481154B1, “Method of large-scale propagation of trees of genus Swietenia” (Sumitomo Forestry Co., Ltd., priority 2000, dated 2002).

Tested on: terminal buds of Swietenia macrophylla
Test: Induction of multiple shoots from terminal buds on modified B5 medium
Format: cell-based
Conditions: IBA 0 mg/l
Method: Terminal buds were excised from mature trees of Swietenia macrophylla and subjected to surface sterilization in 70% ethanol for 30 seconds and then in 2% sodium hypochlorite for 6 minutes, washed several times with sterilized water and dried on a sterilized filter paper.
To a modified B5 medium (which was a B5 medium amounts of all the components were each made a half were added 30 g/l of sucrose, and 0 to 0.02 mg/l of IBA and 0.02 to 1.0 mg/l of BAP as plant growth regulators, followed by pH adjustment to 5.7 and sterilization. The medium so prepared was used as a multiple shoots-inducing medium, and was used at a culturing temperature of 26±2° C. under illumination of fluorescent lamps for 16 hours per day (3,000 to 9,000 Lux). One to 3 months after the start of culturing, multiple shoots were induced.

Structure (SMILES): c1ccc(CNc2ncnc3[nH]cnc23)cc1 [BAP, benzylaminopurine]
- Number of formed multiple shoots/Number of total tested terminal buds (BAP 0.02 mg/l): 1/20
- Number of formed multiple shoots/Number of total tested terminal buds (BAP 0.2 mg/l): 5/20
- Number of formed multiple shoots/Number of total tested terminal buds (BAP 1.0 mg/l): 8/20
